Conditions: Liquid, Vibrating tube method

CCCCCCC [heptane]
Conditions	mass density [kg/m3]
303.15 K, 19974 kPa	693.813
303.15 K, 21920 kPa	695.403
303.15 K, 24992 kPa	697.736
303.15 K, 31958 kPa	702.727
303.15 K, 32862 kPa	703.514
303.15 K, 33112 kPa	703.9
303.15 K, 34081 kPa	704.468
303.15 K, 34980 kPa	705.109
303.15 K, 37951 kPa	707.216
303.15 K, 39904 kPa	708.418
303.15 K, 42014 kPa	709.635
303.15 K, 44896 kPa	711.236
303.15 K, 47951 kPa	713.224
303.15 K, 50065 kPa	714.711
303.15 K, 52073 kPa	715.915
303.15 K, 55074 kPa	717.452
303.15 K, 57989 kPa	719.654
303.15 K, 59979 kPa	720.537
303.15 K, 62052 kPa	721.855
303.15 K, 64988 kPa	723.925
303.15 K, 66030 kPa	724.328
303.16 K, 2964.9 kPa	678.337
303.16 K, 7045.6 kPa	682.343
303.16 K, 8858.2 kPa	683.448
303.16 K, 10014 kPa	684.334
303.16 K, 18021 kPa	692.198
303.16 K, 27933 kPa	699.906
303.16 K, 29990 kPa	701.007
308.15 K, 105 kPa	671.006
308.15 K, 274.3 kPa	671.143
308.15 K, 494.1 kPa	671.318
308.15 K, 803.3 kPa	671.687
308.15 K, 1039.5 kPa	672.093
308.15 K, 1916.7 kPa	672.909
308.15 K, 2980.7 kPa	674.097
308.15 K, 4990.2 kPa	676.132
308.15 K, 6964.9 kPa	678.143
308.15 K, 8864.3 kPa	679.887
308.15 K, 9863.1 kPa	680.761
308.15 K, 12009 kPa	682.857
308.15 K, 17850 kPa	687.815
308.15 K, 19930 kPa	689.488
308.15 K, 21988 kPa	691.177
308.15 K, 25012 kPa	693.658
308.15 K, 27955 kPa	695.718
308.15 K, 29906 kPa	696.905
308.15 K, 31929 kPa	698.302
308.15 K, 32886 kPa	699.002
308.15 K, 32941 kPa	698.96
308.15 K, 34011 kPa	700.438
308.15 K, 37971 kPa	703.176
308.15 K, 40011 kPa	704.309
308.15 K, 41998 kPa	705.614
308.15 K, 45017 kPa	707.854
308.15 K, 48033 kPa	709.906
308.15 K, 50044 kPa	711.265
308.15 K, 51977 kPa	712.584
308.15 K, 54982 kPa	714.563
308.15 K, 58009 kPa	716.265
308.15 K, 60030 kPa	717.688
308.15 K, 61985 kPa	718.959
308.15 K, 64980 kPa	720.569
308.16 K, 15069 kPa	685.368
308.16 K, 34949 kPa	701.078
308.16 K, 66088 kPa	721.543
313.15 K, 100.8 kPa	666.87
313.15 K, 316 kPa	667.185
313.15 K, 569.6 kPa	667.234
313.15 K, 1088.8 kPa	668.002
313.15 K, 2109.7 kPa	669.053
313.15 K, 3137 kPa	670.192
313.15 K, 5111.8 kPa	672.198
313.15 K, 6921.8 kPa	674.169
313.15 K, 9210.7 kPa	676.379
313.15 K, 10209 kPa	677.309
313.15 K, 12020 kPa	679.079
313.15 K, 15059 kPa	681.665
313.15 K, 17921 kPa	684.308

Reference: the NIST ThermoML archive (doi:10.1021/je5010214)
